Data from ChEMBL document CHEMBL4152349, “A Fragment-Derived Clinical Candidate for Antagonism of X-Linked and Cellular Inhibitor of Apoptosis Proteins: 1-(6-[(4-Fluorophenyl)methyl]-5-(hydroxymethyl)-3,3-dimethyl-1 H,2 H,3 H-pyrrolo[3,2- b]pyridin-1-yl)-2-[(2 R,5 …” (J Med Chem, 2018).
The source made the active and inactive calls. The rule behind the calls is not given here.

How the values were obtained:
MDA-MB-231 [1] = assay: Antitumor activity against human MDA-MB-231 cells xenografted in Balb/c mouse assessed as tumor growth inhibition at 16 mg/kg, po qd after 1 to 22 days; format: functional, organism-based
MDA-MB-231 [2] = assay: Antitumor activity against human MDA-MB-231 cells xenografted in Balb/c mouse assessed as tumor growth inhibition at 20 mg/kg, po qd after 1 to 22 days; format: functional, organism-based
Mus musculus [3] = assay: In vivo inhibition of XIAP interaction with SMAC in human MDA-MB-231 cells xenografted in Balb/c SCID mouse at 20 mg/kg, po administered as single dose measured up to 72 hrs by MSD plate-based assay; format: functional, organism-based
Mus musculus [4] = assay: Reduction in cIAP1 level in tumor of Balb/c SCID mouse xenografted with human MDA-MB-231 cells at 20 mg/kg, po administered as single dose measured up to 72 hrs by MSD plate-based assay; format: functional, organism-based
[5] = Volume of distribution at steady state in Balb/c mouse at 5 mg/kg, iv or 10 mg/kg, po by UHPLC and ESI mass spectrometry; format: ADME, organism-based; conditions: in vivo, read-out: Vdss
Cynomolgus monkey [6] = assay: Cardiotoxicity in cynomolgus monkey assessed as effect on QT interval at 100 mg/kg, po administered as single dose; format: toxicity, organism-based, Macaca fascicularis; conditions: in vivo
[7] = Cmax in Balb/c mouse at 10 mg/kg, po by UHPLC and ESI mass spectrometry; format: ADME, organism-based; parameters: dose 10 mg/kg, route oral; conditions: in vivo
in vivo [8] = conditions: cynomolgus monkey, po, 60 mg/kg
in vivo [9] = conditions: cynomolgus monkey, iv, 1 mg/kg
[10] = Plasma clearance in Sprague-Dawley rat at 5 mg/kg, iv or 10 mg/kg, po by UHPLC and ESI mass spectrometry; format: ADME, organism-based
[11] = Volume of distribution at steady state in Sprague-Dawley rat at 5 mg/kg, iv or 10 mg/kg, po by UHPLC and ESI mass spectrometry; format: ADME, organism-based; conditions: in vivo, read-out: Vdss
[12] = Plasma clearance in Balb/c mouse at 5 mg/kg, iv or 10 mg/kg, po by UHPLC and ESI mass spectrometry; format: ADME, organism-based
[13] = Cmax in cynomolgus monkey at 5 mg/kg, po by UHPLC and ESI mass spectrometry; format: ADME, organism-based, Macaca fascicularis; parameters: dose 5 mg/kg, route oral; conditions: in vivo
in vivo [14] = conditions: cynomolgus monkey, plasma, iv, 1 mg/kg
[15] = Oral bioavailability in Sprague-Dawley rat at 10 mg/kg by UHPLC and ESI mass spectrometry; format: ADME, organism-based; conditions: in vivo
[16] = Chromatographic hydrophobicity index, log D of the compound at pH 7.4 by HPLC method; format: physicochemical; conditions: buffer
[17] = Cmax in Sprague-Dawley rat at 10 mg/kg, po by UHPLC and ESI mass spectrometry; format: ADME, organism-based; parameters: dose 10 mg/kg, route oral; conditions: in vivo
in vivo [18] = conditions: cynomolgus monkey, po, 5 mg/kg
[19] = Oral bioavailability in Balb/c mouse at 10 mg/kg by UHPLC and ESI mass spectrometry; format: ADME, organism-based; conditions: in vivo
hERG (KCNH2) = hERG (KCNH2) (Homo sapiens, UniProt Q12809); assay: in vitro; conditions: CHO-K1 cells expressing human ERG
Chain of hERG (KCNH2) (Q12809 whole entry): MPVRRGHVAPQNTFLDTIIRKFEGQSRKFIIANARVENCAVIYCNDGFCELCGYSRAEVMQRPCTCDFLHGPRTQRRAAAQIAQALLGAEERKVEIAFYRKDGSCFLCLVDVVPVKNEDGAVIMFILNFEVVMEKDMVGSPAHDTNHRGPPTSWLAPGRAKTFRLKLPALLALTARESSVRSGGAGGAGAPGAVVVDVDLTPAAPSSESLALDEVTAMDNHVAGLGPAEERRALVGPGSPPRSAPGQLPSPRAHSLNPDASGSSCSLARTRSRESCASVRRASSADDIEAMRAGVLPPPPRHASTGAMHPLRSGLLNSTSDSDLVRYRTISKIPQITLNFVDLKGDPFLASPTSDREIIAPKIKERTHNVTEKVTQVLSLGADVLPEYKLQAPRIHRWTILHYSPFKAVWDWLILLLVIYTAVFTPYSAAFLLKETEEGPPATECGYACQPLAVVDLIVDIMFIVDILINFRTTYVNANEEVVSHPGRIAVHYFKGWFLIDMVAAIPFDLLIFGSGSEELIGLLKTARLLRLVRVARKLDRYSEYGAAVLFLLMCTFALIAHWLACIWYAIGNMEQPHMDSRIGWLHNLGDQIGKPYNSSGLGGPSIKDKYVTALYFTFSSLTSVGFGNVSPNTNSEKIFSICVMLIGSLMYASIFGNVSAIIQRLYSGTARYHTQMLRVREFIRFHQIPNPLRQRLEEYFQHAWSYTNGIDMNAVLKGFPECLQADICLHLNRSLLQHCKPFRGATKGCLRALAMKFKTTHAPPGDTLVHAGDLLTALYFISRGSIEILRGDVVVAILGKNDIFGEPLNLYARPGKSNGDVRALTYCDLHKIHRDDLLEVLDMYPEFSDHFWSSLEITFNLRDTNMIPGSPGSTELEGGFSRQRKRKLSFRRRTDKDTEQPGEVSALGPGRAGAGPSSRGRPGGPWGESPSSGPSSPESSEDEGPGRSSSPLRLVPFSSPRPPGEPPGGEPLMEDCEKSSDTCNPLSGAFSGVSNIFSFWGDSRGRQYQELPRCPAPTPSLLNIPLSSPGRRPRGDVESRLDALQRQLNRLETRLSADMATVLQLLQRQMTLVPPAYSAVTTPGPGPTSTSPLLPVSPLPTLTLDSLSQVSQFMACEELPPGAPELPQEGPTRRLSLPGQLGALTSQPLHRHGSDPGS

CYP3A4 = CYP3A4 (Homo sapiens, UniProt P08684); assay: in vitro; conditions: human CYP3A4 supersomes
Chain of CYP3A4 (P08684 whole entry): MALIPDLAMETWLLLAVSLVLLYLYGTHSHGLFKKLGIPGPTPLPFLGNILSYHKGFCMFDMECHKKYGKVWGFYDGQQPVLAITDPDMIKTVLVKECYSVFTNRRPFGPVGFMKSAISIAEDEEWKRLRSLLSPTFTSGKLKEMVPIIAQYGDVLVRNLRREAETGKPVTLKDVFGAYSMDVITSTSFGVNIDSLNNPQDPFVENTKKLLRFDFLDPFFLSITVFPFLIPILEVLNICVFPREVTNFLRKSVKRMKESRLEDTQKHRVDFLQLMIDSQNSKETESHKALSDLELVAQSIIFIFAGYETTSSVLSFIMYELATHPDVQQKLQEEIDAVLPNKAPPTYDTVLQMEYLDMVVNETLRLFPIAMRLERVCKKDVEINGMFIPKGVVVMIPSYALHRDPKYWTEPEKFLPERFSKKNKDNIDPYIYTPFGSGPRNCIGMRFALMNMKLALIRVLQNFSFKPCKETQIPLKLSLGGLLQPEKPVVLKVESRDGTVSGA

MDA-MB-231 [20] = assay: cells; conditions: Homo sapiens, MDA-MB-231, 72 h
[21] = Oral bioavailability in Balb/c mouse at 5 mg/kg by UHPLC and ESI mass spectrometry; format: ADME, organism-based; conditions: in vivo
[22] = Drug level in tumor of human MDA-MB-231 cells xenografted Balb/c SCID mouse at 20 mg/kg, po administered as single dose measured up to 72 hrs by UPLC analysis; format: ADME, organism-based, Neoplasm; conditions: in vivo
[23] = Permeability in human Caco2 cells at 10 uM after 1 hr; format: ADME, cell-based; conditions: Caco-2, read-out: permeability
[24] = Drug metabolism in Sprague-Dawley rat hepatocytes assessed as 2-((2S,5R)-2-(aminomethyl)-5-methylpiperazin-1-yl)-1-(6-(4-fluorobenzyl)-3,3-dimethyl-2,3-dihydro-1H-pyrrolo[3,2-b]pyridin-1-yl)ethanone formation at 10 uM up to 90 mins by LC-MS analysis; format: ADME, cell-based, Hepatocyte
[25] = Drug metabolism in CD-1 mouse hepatocytes assessed as oxidation metabolite formation at 10 uM up to 90 mins by LC-MS analysis; format: ADME, cell-based, Hepatocyte
[26] = Stability in cynomolgus monkey liver microsomes at 10 uM up to 90 mins in presence of NADPH by LC/MS analysis; format: ADME, Macaca fascicularis, microsome
[27] = Drug metabolism in Sprague-Dawley rat hepatocytes assessed as 2-((R)-1-amino-3-((R)-3-methylmorpholino)propan-2-ylamino)-1-(6-(4-fluorobenzyl)-3,3-dimethyl-2,3-dihydro-1H-pyrrolo[3,2-b]pyridin-1-yl)ethanone formation at 10 uM up to 90 mins by LC-MS analysis; format: ADME, cell-based, Hepatocyte
[28] = Cmax in Sprague-Dawley rat at 5 mg/kg, po by UHPLC and ESI mass spectrometry; format: ADME, organism-based; parameters: dose 5 mg/kg, route oral; conditions: in vivo
Cynomolgus monkey [29] = assay: Plasma clearance in cynomolgus monkey at 1 mg/kg, iv or 5 mg/kg, po relative to liver blood flow; format: ADME, organism-based, Macaca fascicularis; conditions: in vivo
[30] = Drug metabolism in cynomolgus monkey hepatocytes assessed as oxidation metabolite formation at 10 uM up to 90 mins by LC-MS analysis; format: ADME, cell-based, Macaca fascicularis, Hepatocyte
[31] = Plasma clearance in Sprague-Dawley rat at 1 mg/kg, iv or 5 mg/kg, po by UHPLC and ESI mass spectrometry; format: ADME, organism-based
[32] = Oral bioavailability in Sprague-Dawley rat at 5 mg/kg by UHPLC and ESI mass spectrometry; format: ADME, organism-based; conditions: in vivo
[33] = Drug metabolism in human hepatocytes assessed as oxidation metabolite formation at 10 uM up to 90 mins by LC-MS analysis; format: ADME, cell-based, Hepatocyte
[34] = Drug metabolism in Sprague-Dawley rat hepatocytes assessed as oxidation metabolite formation at 10 uM up to 90 mins by LC-MS analysis; format: ADME, cell-based, Hepatocyte
[35] = Drug metabolism in Sprague-Dawley rat hepatocytes assessed as 1-(6-(4-fluorobenzyl)-3,3-dimethyl-2,3-dihydro-1H-pyrrolo[3,2-b]pyridin-1-yl)-2-((2S,5R)-2-((2-hydroxyethylamino)methyl)-5-methylpiperazin-1-yl)ethanone formation at 10 uM up to 90 mins by LC-MS analysis; format: ADME, cell-based, Hepatocyte
[36] = Volume of distribution at steady state in Sprague-Dawley rat at 1 mg/kg, iv or 5 mg/kg, po by UHPLC and ESI mass spectrometry; format: ADME, organism-based; conditions: in vivo, read-out: Vdss

C[C@@H]1CN(CC(=O)N2CC(C)(C)c3nc(CO)c(Cc4ccc(F)cc4)cc32)[C@@H](CN2CCOC[C@H]2C)CN1
TGI (MDA-MB-231 [1]): Active | TGI (MDA-MB-231 [2]): Active | Activity (Mus musculus [3]): Active | Activity (Mus musculus [4]): Active

C[C@@H]1CN(CC(=O)N2CC(C)(C)c3nc(CO)c(Cc4ccc(F)cc4)cc32)[C@@H](CN2CCOC[C@H]2C)CN1 [ASTX-660]
Vd [5]: 2.7 L/kg | Activity (Cynomolgus monkey [6]): Non-Toxic | Cmax [7]: 433 ng/mL | bioavailability (in vivo [8]): 50% | Vd (in vivo [9]): 6 L/kg | clearance [10]: 38 mL/min/kg | Vd [11]: 9.3 L/kg | clearance [12]: 41 mL/min/kg | Cmax [13]: 137 ng/mL | clearance (in vivo [14]): 16 mL/min/kg | bioavailability [15]: 29% | chromatographic logD [16]: 3.1 | Cmax [17]: 117 ng/mL | bioavailability (in vivo [18]): 12% | bioavailability [19]: 34%

C[C@@H]1CN(CC(=O)N2CC(C)(C)c3nnc(Cc4ccc(F)cc4F)cc32)[C@@H](CN2Cc3c(F)cccc3C2=O)CN1
inhibition at 10 min, 30 µM (hERG (KCNH2)): 28% | half-life at 40 min, 1 µM (CYP3A4): > 70 min | IC50 (MDA-MB-231 [20]): 0.59 nM | chromatographic logD [16]: 2.7

C[C@@H]1CN(CC(=O)N2CC(C)(C)c3cc(=O)n(Cc4ccc(F)cc4)cc32)[C@@H](CN2[C@H](C)COC[C@H]2C)CN1
chromatographic logD [16]: 2.4

C[C@@H]1CN(CC(=O)N2CC(C)(C)c3nnc(Cc4ccc(F)cc4F)cc32)[C@@H](CN2Cc3ccccc3C2=O)CN1
inhibition at 10 min, 30 µM (hERG (KCNH2)): 27% | half-life at 40 min, 1 µM (CYP3A4): > 70 min | IC50 (MDA-MB-231 [20]): 5.4 nM | chromatographic logD [16]: 2.4 | bioavailability [21]: 3% | bioavailability (in vivo [18]): 18% | bioavailability [19]: 2%

C[C@@H]1CN(CC(=O)N2CC(C)(C)c3nc(CO)c(Cc4ccc(F)cc4)cc32)[C@@H](CN2CCOC[C@H]2C)CN1.Cl.Cl
Drug uptake [22]: Active

C[C@@H]1CN(CC(=O)N2CC(C)(C)c3ncc(Cc4ccc(F)cc4)cc32)[C@@H](CN2CCOC[C@H]2C)CN1
Papp at 1 h, 10 µM [23]: 1.1 ×10⁻⁶ cm/s | Drug metabolism [24]: Metabolite_Notdetected | Drug metabolism [25]: Metabolite_Detected | Stability [26]: Stable | Drug metabolism [27]: Metabolite_Notdetected | Cmax [28]: 47 ng/mL | Vd (in vivo [9]): 3.7 L/kg | CL (Cynomolgus monkey [29]): < 50% | Drug metabolism [30]: Metabolite_Detected | clearance [31]: 26 mL/min/kg | bioavailability [32]: 24% | Cmax [13]: 22 ng/mL | clearance (in vivo [14]): 17 mL/min/kg | Drug metabolism [33]: Metabolite_Detected | Drug metabolism [34]: Metabolite_Notdetected | Drug metabolism [35]: Metabolite_Notdetected | bioavailability (in vivo [18]): 2% | Vd [36]: 12 L/kg

C[C@@H]1CN(CC(=O)N2CC(C)(C)c3nnc(Cc4ccc(F)cc4F)cc32)[C@@H](CN2Cc3cc(C#N)ccc3C2=O)CN1
inhibition at 10 min, 30 µM (hERG (KCNH2)): 19% | half-life at 40 min, 1 µM (CYP3A4): 42 min | IC50 (MDA-MB-231 [20]): 5.2 nM | chromatographic logD [16]: 3

C[C@@H]1CN(CC(=O)N2CC(C)(C)c3c2cc(Cc2ccc(F)cc2)c(=O)n3C)[C@@H](CN2[C@H](C)COC[C@H]2C)CN1
chromatographic logD [16]: 3.2

C[C@@H]1CN(CC(=O)N2CC(C)(C)c3ncc([C@@H](O)c4ccc(F)cc4)cc32)[C@@H](CN2[C@H](C)COC[C@H]2C)CN1
chromatographic logD [16]: 2.9 | bioavailability (in vivo [18]): 13% | bioavailability [19]: 31%
